Results: patent US20200223889A1, “Bicyclic Compounds Capable of Binding to Melanocortin 4 Receptor” (Novo Nordisk A/S, priority 2017, published 2020)
Like-named read-outs stand apart in the source and are kept apart here. Starred links: 1 amine or outer side, 2 acyl side, 3 side chain; linkers in the order of their positions; H or OH if unused. Positions of bridges follow the written chain, without caps; N, C: chain ends. Non-standard residues stand in square brackets, D forms with d. Residues, ends and D or L forms follow the SMILES beside them. Hyp = O=C(O)[C@@H]1C[C@@H](O)CN1; Pen = CC(C)(S)[C@H](N)C(=O)O; d(hCys) = N[C@H](CCS)C(=O)O; Orn = NCCC[C@H](N)C(=O)O; Thz = O=C(O)[C@@H]1CSCN1; Api = NC1(C(=O)O)CCNCC1; X1 = C(CN[*:2])CS[*:1]; Aib = CC(C)(N)C(=O)O

Molecular target: T1, human MC4R (Homo sapiens, UniProt P32245)
T1 construct: expressed in transfected cells
T1 sequence (P32245 whole entry): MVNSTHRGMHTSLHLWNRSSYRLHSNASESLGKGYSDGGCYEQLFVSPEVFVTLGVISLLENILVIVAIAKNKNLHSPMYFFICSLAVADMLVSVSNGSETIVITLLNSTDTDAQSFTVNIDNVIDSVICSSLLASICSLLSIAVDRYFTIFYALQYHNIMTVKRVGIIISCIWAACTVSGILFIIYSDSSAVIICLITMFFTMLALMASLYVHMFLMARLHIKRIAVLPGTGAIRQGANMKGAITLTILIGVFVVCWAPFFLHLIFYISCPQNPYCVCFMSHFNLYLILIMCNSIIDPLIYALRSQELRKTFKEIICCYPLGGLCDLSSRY
Assay: Functional cAMP assay (CisBio HTRF) in BHK cells expressing human MC4R
Type: cell-based
Settings: for MC1R/MC4R cAMP EC50 ratio: MC1R cAMP EC50 divided by MC4R cAMP EC50
Method: In order to assess the potency of the compounds on human MC1R and human MC4R cAMP signalling was measured.
cAMP induction was measured by c-AMPdynamic2 assay, HTRF 62AM4PEC system from CisBio for the human MC1R and human MC4R according to the protocol provided by the vendor. BHK cells expressing the human MC1 or MC4 receptor were generated by stable transfection with expression vectors encoding the cDNA of either MC1R or MC4R.
In details; 25 μl compound—or standard solution were added in the respective wells. Compound was reconstituted in buffer (DMEM w/o phenol red, 10 mM
Hepes, lx Glutamine, 0.1% OV-albumin1, 1 mM IBMX) and serially diluted starting at 2 μM, 10-fold seven times. Dilutions were carried out in the same aforementioned buffer to the desired working concentration ranges (2× higher than the final concentration). 25 μl cell solution was then added and allowed to incubate for 30 min while lightly shaking, at 25° C. […] The provided components for the assay were reconstituted according to the CisBio assay protocol “3.1 supplied reagents and preparation procedure” in MilliQ purification system H2O and diluted 1:20 in lysis buffer. 25 μl cAMP-d2 and 25 μl Cryptate conjugate were added to all wells.
Plates were centrifuged at 1500 rpm for 30 sec and incubated for 1 h, lightly shaking, at 25° C. in a hotel stacker. The plates were read on Mithras LB 940 provided by Berthold Technologies The data were analysed by non-linear regression analysis of binding curves, using the Windows™ program GraphPad™ Prism (GraphPad Software, USA).
The latter is used when no full curve can be obtained in the concentration ranges indicated above.

[1] = BHK cells expressing human MC4R, '>' = highest dose used with no response, read-out: MC4R cAMP EC50

`C[C@@H]1NC(=O)[C@H](C)NC(=O)[C@H](CCCN)NC(=O)[C@H](CCCN)NC(=O)[C@@H]2CSSC[C@H](NC(=O)[C@H](Cc3c[nH]c4ccccc34)NC1=O)C(=O)N1CSC[C@H]1C(=O)N[C@@H](Cc1c[nH]cn1)C(=O)N[C@H](Cc1ccccc1)C(=O)N[C@@H](Cc1c[nH]cn1)C(=O)N[C@@H](Cc1c[nH]c3ccccc13)C(=O)N2` [Chem. 116, c[c[Cys-THAZ-His-D-Phe-His-Trp- Cys]-Orn-Orn-Ala-Ala-Trp]] (cyclo(AAWC[Thz]H[dF]HWC[Orn][Orn]); disulfide 4-10) was tested, and the EC50 was 120 pM and the “MC1R/MC4R cAMP EC50 ratio” value was 1927.

For `C[C@@H]1NC(=O)[C@@H]2CSSC[C@H](NC(=O)[C@H](Cc3c[nH]c4ccccc34)NC(=O)[C@H](CCCNC(=N)N)N(C)C(=O)[C@@H](Cc3ccccc3)NC(=O)[C@H](Cc3c[nH]cn3)NC1=O)C(=O)N[C@@H](C)C(=O)N[C@@H](Cc1c[nH]cn1)C(=O)N[C@H](Cc1ccccc1)C(=O)N(C)[C@@H](CCCNC(=N)N)C(=O)N[C@@H](Cc1c[nH]c3ccccc13)C(=O)N2` [Chem. 37, c[c[Cys-Ala-His-D-Phe-N-MeArg-Trp- Cys]-Ala-His-D-Phe-N-MeArg-Trp]], the “MC1R/MC4R cAMP EC50 ratio” value was 8.

For `N=C(N)NCCC[C@@H]1NC(=O)[C@@H](Cc2ccccc2)NC(=O)[C@H](Cc2c[nH]cn2)NC(=O)[C@@H]2C[C@@H](O)CN2C(=O)[C@@H]2CSSC[C@H](NC(=O)[C@H](Cc3c[nH]c4ccccc34)NC1=O)C(=O)N1C[C@H](O)C[C@H]1C(=O)N[C@@H](Cc1c[nH]cn1)C(=O)N[C@H](Cc1ccccc1)C(=O)N[C@@H](CCCNC(=N)N)C(=O)N[C@@H](Cc1c[nH]c3ccccc13)C(=O)N2` [Chem. 32, c[c[Cys-Hyp-His-D-Phe-Arg-Trp- Cys]-Hyp-His-D-Phe-Arg-Trp]] (cyclo(C[Hyp]H[dF]RWC[Hyp]H[dF]RW); disulfide 1-7), the EC50 was 120 pM and the “MC1R/MC4R cAMP EC50 ratio” value was 17.

In the case of `C[C@@H]1NC(=O)[C@H](C)NC(=O)[C@H](CCCCN)NC(=O)[C@H](CCCCN)NC(=O)[C@H]2NC(=O)[C@H](Cc3c[nH]c4ccccc34)NC(=O)[C@H](Cc3c[nH]cn3)NC(=O)[C@@H](Cc3ccccc3)NC(=O)[C@H](Cc3c[nH]cn3)NC(=O)[C@@H]3CSCN3C(=O)[C@H](CSSC2(C)C)NC(=O)[C@H](Cc2c[nH]c3ccccc23)NC1=O` [Chem. 117, c[c[Cys-THAZ-His-D-Phe-His-Trp- Pen]-Lys-Lys-Ala-Ala-Trp]] (cyclo(AAWC[Thz]H[dF]HW[Pen]KK); disulfide 4-10), the EC50 is reported as 200 pM and the “MC1R/MC4R cAMP EC50 ratio” value is reported as 841.

For `C[C@@H]1NC(=O)[C@@H]2CSSC[C@H](NC(=O)[C@H](Cc3c[nH]c4ccccc34)NC(=O)[C@H](CCN)NC(=O)[C@@H](Cc3ccccc3)NC(=O)[C@H](Cc3c[nH]cn3)NC1=O)C(=O)N[C@@H](C)C(=O)N[C@@H](Cc1c[nH]cn1)C(=O)N[C@H](Cc1ccccc1)C(=O)N[C@@H](CCN)C(=O)N[C@@H](Cc1c[nH]c3ccccc13)C(=O)N2` [Chem. 17, c[c[Cys-Ala-His-D-Phe-Dab-Trp-Cys]- Ala-His-D-Phe-Dab-Trp]], the “MC1R/MC4R cAMP EC50 ratio” value was 288.

For `N=C(N)NCCC[C@@H]1NC(=O)[C@@H](Cc2ccccc2)NC(=O)[C@H](Cc2c[nH]cn2)NC(=O)[C@@H]2CSSC[C@H](NC(=O)[C@H](CCC(=O)O)NC(=O)[C@H](Cc3c[nH]c4ccccc34)NC1=O)C(=O)N[C@@H](Cc1c[nH]cn1)C(=O)N[C@H](Cc1ccccc1)C(=O)N[C@@H](CCCNC(=N)N)C(=O)N[C@@H](Cc1c[nH]c3ccccc13)C(=O)N[C@@H](CCC(=O)O)C(=O)N2` [Chem. 1, c[c[Cys-His-D-Phe-Arg-Trp-Glu-Cys]- His-D-Phe-Arg-Trp-Glu]] (cyclo(CH[dF]RWECH[dF]RWE); disulfide 1-7), the “MC1R/MC4R cAMP EC50 ratio” value was 13.

In the case of `N=C(N)NCCC[C@@H]1NC(=O)[C@H](Cc2c[nH]c3ccccc23)NC(=O)[C@H](CCCNC(=N)N)NC(=O)[C@@H](Cc2ccccc2)NC(=O)[C@H](Cc2c[nH]cn2)NC(=O)[C@@H]2CSSC[C@H](NC1=O)C(=O)N[C@@H](Cc1c[nH]cn1)C(=O)N[C@H](Cc1ccccc1)C(=O)N[C@@H](CCCNC(=N)N)C(=O)N[C@@H](Cc1c[nH]c3ccccc13)C(=O)N[C@@H](CCCNC(=N)N)C(=O)N2` [Chem. 68, c[c[Cys-His-D-Phe-Arg-Trp-Arg-Cys]- His-D-Phe-Arg-Trp-Arg]] (cyclo(CH[dF]RWRCH[dF]RWR); disulfide 1-7), the “MC1R/MC4R cAMP EC50 ratio” value is reported as 1.

For `CC(=O)N[C@@H](Cc1c[nH]cn1)C(=O)N[C@H](Cc1ccccc1)C(=O)N[C@@H](CCCNC(=N)N)C(=O)N[C@@H](Cc1c[nH]c2ccccc12)C(=O)N[C@@H](C)C(=O)N[C@@H]1CCSSCCCNC(=O)[C@H](C)NC(=O)[C@H](Cc2c[nH]c3ccccc23)NC(=O)[C@H](CCCNC(=N)N)NC(=O)[C@@H](Cc2ccccc2)NC(=O)[C@H](Cc2c[nH]cn2)NC1=O` [Chem. 5, c[c[Cys-His-D-Phe-Arg-Trp-Ala-Cys]- His-D-Phe-Arg-Trp-Ala]] (Ac-H[dF]RWA[d(hCys)]H[dF]RWA; linker 6-C via X1), the EC50 [1] was 210 pM and the “MC1R/MC4R cAMP EC50 ratio” value was 31.

For `CC1(C)NC(=O)[C@@H]2CSSC[C@H](NC(=O)[C@H](Cc3c[nH]c4ccccc34)NC(=O)[C@H](CCCNC(=N)N)NC(=O)[C@@H](Cc3ccccc3)NC(=O)[C@@H]3CCCN3C1=O)C(=O)NC(C)(C)C(=O)N1CCC[C@H]1C(=O)N[C@H](Cc1ccccc1)C(=O)N[C@@H](CCCNC(=N)N)C(=O)N[C@@H](Cc1c[nH]c3ccccc13)C(=O)N2` [Chem. 39, c[c[Cys-Aib-Pro-D-Phe-Arg-Trp-Cys]- Aib-Pro-D-Phe-Arg-Trp]] (cyclo([Aib]P[dF]RWC[Aib]P[dF]RWC); disulfide 6-12), the “MC1R/MC4R cAMP EC50 ratio” value was 37.

With `CC(=O)N[C@@H](Cc1c[nH]cn1)C(=O)N[C@H](Cc1ccccc1)C(=O)N[C@@H](CCCNC(=N)N)C(=O)N[C@@H](Cc1c[nH]c2ccccc12)C(=O)NCC(=O)N[C@@H]1CCSSCCCNC(=O)CNC(=O)[C@H](Cc2c[nH]c3ccccc23)NC(=O)[C@H](CCCNC(=N)N)NC(=O)[C@@H](Cc2ccccc2)NC(=O)[C@H](Cc2c[nH]cn2)NC1=O` [Chem. 4, c[c[Cys-His-D-Phe-Arg-Trp-Gly-Cys]- His-D-Phe-Arg-Trp-Gly]] (Ac-H[dF]RWG[d(hCys)]H[dF]RWG; linker 6-C via X1) the EC50 [1] was 90 pM and the “MC1R/MC4R cAMP EC50 ratio” value was 7.

With `C[C@@H]1NC(=O)[C@@H]2CSSC[C@H](NC(=O)[C@H](CCCNC(=N)N)NC(=O)[C@@H](CCCCN)NC(=O)[C@@H](CCCCN)NC(=O)[C@H](Cc3c[nH]cn3)NC1=O)C(=O)N1CCC[C@H]1C(=O)N[C@@H](Cc1c[nH]cn1)C(=O)N[C@H](Cc1ccccc1)C(=O)N[C@@H](Cc1c[nH]cn1)C(=O)N[C@@H](Cc1c[nH]c3ccccc13)C(=O)N2` [Chem. 121, c[c[Cys-Pro-His-D-Phe-His-Trp-Cys]- Ala-His-D-Lys-D-Lys-Arg]] (cyclo(AH[dK][dK]RCPH[dF]HWC); disulfide 6-12) the EC50 [1] was 240 pM and the “MC1R/MC4R cAMP EC50 ratio” value was 786.

With `O=C1N[C@H]2CSSC[C@H](NC(=O)[C@H](Cc3c[nH]c4ccccc34)NC(=O)[C@H](Cc3c[nH]cn3)NC(=O)[C@@H](Cc3ccccc3)NC(=O)[C@H](Cc3c[nH]cn3)NC(=O)C3(CCNCC3)NC2=O)C(=O)NC2(CCNCC2)C(=O)N[C@@H](Cc2c[nH]cn2)C(=O)N[C@H](Cc2ccccc2)C(=O)N[C@@H](Cc2c[nH]cn2)C(=O)N[C@H]1Cc1c[nH]c2ccccc12` [Chem. 50, c[c[Cys-ACP-His-D-Phe-His-Trp-Cys]- ACP-His-D-Phe-His-Trp]] (cyclo([Api]H[dF]HWC[Api]H[dF]HWC); disulfide 6-12) the “MC1R/MC4R cAMP EC50 ratio” value was 56.

For `CC1(C)NC(=O)[C@@H]2CSSC[C@H](NC(=O)[C@H](Cc3c[nH]c4ccccc34)NC(=O)[C@H](CCCNC(=N)N)NC(=O)[C@@H](Cc3ccccc3)NC(=O)[C@H](Cc3c[nH]cn3)NC1=O)C(=O)NC(C)(C)C(=O)N[C@@H](Cc1c[nH]cn1)C(=O)N[C@H](Cc1ccccc1)C(=O)N[C@@H](CCCNC(=N)N)C(=O)N[C@@H](Cc1c[nH]c3ccccc13)C(=O)N2` [Chem. 9, c[c[Cys-Aib-His-D-Phe-Arg-Trp-Cys]- Aib-His-D-Phe-Arg-Trp]] (cyclo([Aib]H[dF]RWC[Aib]H[dF]RWC); disulfide 6-12), the “MC1R/MC4R cAMP EC50 ratio” value was 201.

`C[C@@H]1NC(=O)[C@@H]2CSSC[C@H](NC(=O)[C@H](CCCNC(=N)N)NC(=O)[C@H](CCCNC(=N)N)NC(=O)[C@H](CCC(=O)O)NC(=O)[C@H](CCCNC(=N)N)NC1=O)C(=O)N1CSC[C@H]1C(=O)N[C@@H](Cc1c[nH]cn1)C(=O)N[C@H](Cc1ccccc1)C(=O)N[C@@H](Cc1c[nH]cn1)C(=O)N[C@@H](Cc1c[nH]c3ccccc13)C(=O)N2` [Chem. 113, c[c[Cys-THAZ-His-D-Phe-His-Trp- Cys]-Ala-Arg-Glu-Arg-Arg]] (cyclo(ARERRC[Thz]H[dF]HWC); disulfide 6-12) was tested, and the EC50 was 20 pM and the “MC1R/MC4R cAMP EC50 ratio” value was 2112.
